# Test system: 817829-284-R-J1-PDC multi-cell spheroid viability
# Test: Anticancer human tumor 817829-284-R-J1-PDC patient-derived colon adenocarcinoma cell line growth inhibition [PI3K]
# Conditions: for IC50: curve of first compound; for viability, T/C: stronger effect = lower value
# Excerpt: Combinatorial screen of targeted agents with the PI3K inhibitors inavolisib, alpelisib, duvelisib, and copanlisib in multi-cell type tumor spheroids
# A high-throughput screen of multi-cell type tumor spheroids was designed to identify active combinations of targeted small molecules and PI3K pathway inhibitors. Complex spheroids include a stromal component modeled by human endothelial cells (HUVEC) and fibroblasts modeled by human mesenchymal stem cells (MSCs). The concentration ranges selected for each drug and investigational agent were based upon clinically achievable concentrations if the clinical Cmax of the agent was known.
# Compounds. The drugs and investigational agents: inavolisib (NSC800729), alpelisib (NSC765974), duvelisib (NSC772469), copanlisib (NSC816437), ipatasertib (NSC767898), afuresertib (NSC778305), talazoparib (NSC767125), sapanisertib (NSC764658), selumetinib (NSC741078), tovorafenib (DAY101, NSC766906), vemurafenib (NSC761431), ravoxertinib (NSC781343), sotorasib (NSC818433), MRTX1133 (NSC 836407), abemaciclib (NSC 768073), palbociclib (NSC758247), venetoclax (NSC 766270), SY5609 (NSC837396), enzalutamide (NSC755605), and darolutamide (NSC825331), were obtained from the National Cancer Institute (NCI) Developmental Therapeutics Program Chemical Repository. The FDA-approved anticancer drug set is available from the NCI Developmental Therapeutics Program. […] The stock solutions were prepared in dimethyl sulfoxide (DMSO, Sigma-Aldrich, St. Louis, MO, cat. D2650) at 800-fold the tested concentration and stored at -70 degrees C prior to their use. All drugs and investigational agents were tested over a range starting from a high concentration at or near the clinical Cmax and decreasing in half-log increments. If the clinical Cmax for an agent had not been determined, the highest concentration tested was 10 microM.
# Cell Culture. All cells were maintained in an incubator at 37 degrees C and 5% CO2 with 95% humidity. The PDC lines were cultured according to standard operating procedures established by the NCI PDMR (https://pdmr.cancer.gov/sops/default.htm). All PDCs were thawed and cultured in Matrigel-coated flasks prepared with a working solution of 1X Ham's F-12 nutrient mix, without supplementation (Invitrogen, Waltham, MA, cat. 11765054), 100 U/mL penicillin-streptomycin (Invitrogen, cat. 15140122), and 2.5% Matrigel (Corning Inc., Corning, NY, cat. 354248) for the first three passages. The 354836-022-R-J1-PDC, 475296-252-R-J1-PDC, and 997726-040-R-J2-PDC lines were cultured in 6A media, which includes advanced DMEM/F-12 (Thermo Fisher Scientific, cat. 12634028), 10 mM HEPES (Thermo Fisher Scientific, cat. 15630080), 1X GlutaMAX supplement (Thermo Fisher Scientific, cat. 35050061), 0.1 mg/mL primocin (InvivoGen, San Diego, CA, cat. ant-pm-2), 10% defined fetal bovine serum, heat inactivated (HyClone Laboratories Inc., Logan, UT, cat. SH30070.03HI), 50% L-WRN conditioned media (ATCC, cat. CRL-3276), 1.25 mM N-Acetyl-L-cysteine (Sigma-Aldrich, cat. A9165), 10 mM nicotinamide (Sigma-Aldrich, cat. N0636), 1X B-27 supplement (Thermo Fisher Scientific, cat. 17504044), 1X N-2 supplement (Thermo Fisher Scientific, cat. 17502048), and 10 microM Y-27632 dihydrochloride (Tocris Bioscience, Bristol, United Kingdom, cat. 1254). The 624824-186-R-J2-PDC line was cultured in 6C/Colon 1B media, which includes all 6A media components plus 50 ng/mL human EGF recombinant protein (Thermo Fisher Scientific, cat. PHG0311). […]
# 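Also: spheroids exposed to agents for seven days before readout.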
# 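For viability, T/C in this document: percent of vehicle DMSO control viability which is 100%.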
compound,measurement,setting,value
C=CC(=O)N1CCN(c2nc(=O)n(-c3c(C)ccnc3C(C)C)c3nc(-c4c(O)cccc4F)c(F)cc23)C(C)C1 (configuration not stated) + CC(Nc1ccc2c(c1)OCCn1cc(N3C(=O)OCC3C(F)F)nc1-2)C(N)=O,IC50,second compound 0.00316 µM,> 10 µM
same,IC50,second compound 0.01 µM,> 10 µM
same,IC50,second compound 0.0316 µM,> 10 µM
same,IC50,second compound 0.1 µM,6.65 µM
same,IC50,second compound 0.316 µM,> 10 µM
same,IC50,second compound 1 µM,> 10 µM
same,"viability, T/C","second compound 0.00316 µM, first compound 0.0316 µM",91.4%
same,"viability, T/C","second compound 0.00316 µM, first compound 0.1 µM",93.3%
same,"viability, T/C","second compound 0.00316 µM, first compound 0.316 µM",82.9%
same,"viability, T/C","second compound 0.00316 µM, first compound 1 µM",71.9%
same,"viability, T/C","second compound 0.00316 µM, first compound 3.16 µM",77.9%
same,"viability, T/C","second compound 0.00316 µM, first compound 10 µM",55.4%
same,"viability, T/C","second compound 0.01 µM, first compound 0.0316 µM",62.7%
same,"viability, T/C","second compound 0.01 µM, first compound 0.1 µM",57.7%
same,"viability, T/C","second compound 0.01 µM, first compound 0.316 µM",83.9%
same,"viability, T/C","second compound 0.01 µM, first compound 1 µM",78.6%
same,"viability, T/C","second compound 0.01 µM, first compound 3.16 µM",84.8%
same,"viability, T/C","second compound 0.01 µM, first compound 10 µM",38.9%
same,"viability, T/C","second compound 0.0316 µM, first compound 0.0316 µM",53.8%
same,"viability, T/C","second compound 0.0316 µM, first compound 0.1 µM",112%
same,"viability, T/C","second compound 0.0316 µM, first compound 0.316 µM",108%
same,"viability, T/C","second compound 0.0316 µM, first compound 1 µM",51.1%
same,"viability, T/C","second compound 0.0316 µM, first compound 3.16 µM",64%
same,"viability, T/C","second compound 0.0316 µM, first compound 10 µM",73.7%
same,"viability, T/C","second compound 0.1 µM, first compound 0.0316 µM",64.7%
same,"viability, T/C","second compound 0.1 µM, first compound 0.1 µM",92.2%
same,"viability, T/C","second compound 0.1 µM, first compound 0.316 µM",79.2%
same,"viability, T/C","second compound 0.1 µM, first compound 1 µM",84.2%
same,"viability, T/C","second compound 0.1 µM, first compound 3.16 µM",78.9%
same,"viability, T/C","second compound 0.1 µM, first compound 10 µM",34.1%
same,"viability, T/C","second compound 0.316 µM, first compound 0.0316 µM",60.1%
same,"viability, T/C","second compound 0.316 µM, first compound 0.1 µM",75.9%
same,"viability, T/C","second compound 0.316 µM, first compound 0.316 µM",67.4%
same,"viability, T/C","second compound 0.316 µM, first compound 1 µM",52.6%
same,"viability, T/C","second compound 0.316 µM, first compound 3.16 µM",68%
same,"viability, T/C","second compound 0.316 µM, first compound 10 µM",44.6%
same,"viability, T/C","second compound 1 µM, first compound 0.0316 µM",61.6%
same,"viability, T/C","second compound 1 µM, first compound 0.1 µM",53.9%
same,"viability, T/C","second compound 1 µM, first compound 0.316 µM",79.3%
same,"viability, T/C","second compound 1 µM, first compound 1 µM",57.3%
same,"viability, T/C","second compound 1 µM, first compound 3.16 µM",62.7%
same,"viability, T/C","second compound 1 µM, first compound 10 µM",53.5%

# — PubChem BioAssay AID1963969 (Molecular Pharmacology Branch, DTP, NCI, 2024)
